Patent publication US20240237661A1, “ANTIMICROBIAL SOLUTIONS AND USES THEREOF” (EcoPlanet Environmental LLC, priority 2023, published 2024)
“And” between values parts separate entries of the source, which are not always exact repeats. Equal values may be shown once.

How the values were obtained:
[1] = test system: range of target microorganisms; conditions: both in gas and MIC assays; cited from earlier work
[2] = test system: nalidixic acid-resistant Salmonella Enterica serovar Typhimurium; test: Wing wash model: Salmonella counts in rinsate of experimentally contaminated broiler wings; assay type: cell-based
Protocol: As a non-limiting example, the efficacy of Sx on the reduction of nalidixic acid-resistant Salmonella spp. on experimentally contaminated broiler carcasses (using a wing wash model) was tested. Sx was tested at 100 ppm and 200 ppm, with or without lecithin and was compared with an untreated negative control group and peracetic Acid (PAA) at 200 ppm as a commercial comparator. […] Almost 0.6 to 3.0 log reduction has been observed in previous iterations. During those studies, the effectiveness of Sx was studied at different time intervals and fixed time interval. […] Whereas, based on literature and food safety inspection services (USDA) directive 7120.1, PAA has been recommended with the dose range of 50 ppm to 2000 ppm. Under field conditions, most of the establishments use 200 ppm as a whole carcass rinse. Therefore, in this iteration, Sx was compared with PAA at 200 ppm level. In this study, Sx was tested at 1.25% and 2.5% level which are equivalent to 100 ppm and 200 ppm of propionic acid concentration. Lecithin was added to the Sx solution at the rate of 0.02%. Lecithin is believed to enhance the cell wall penetration of propionic acid and isoamyl hexanoate leading to better antimicrobial activity.
For this study, a WHIRL-PAK® bag containing one pair of chicken wings was the experimental unit. On approximately day 47 of the broilers age, approximately 54 broilers were euthanized by severing the jugular vein after euthanization. The carcass was thoroughly washed using hot water. The feathers were removed using a mechanical plucker. The wings were separated from the whole carcass and preserved in a cooler containing ice. Each treatment group was represented by nine sample bags (replicates) containing one pair of wings. Three sample bags from each treatment group were pooled together and identified as first, second and third set as shown in Table 3.
To start with, eighteen pairs of wings were brought to the hood and sprayed with Salmonella typhimurium (Nalidixic Acid Resistant [NAR]) inoculum at the rate of 10 mL per pair. The carcasses were allowed to dry for 15 minutes. Following drying, eighteen pairs of wings were inserted into WHIRL-PAK bags at the rate of one pair per WHIRL-PAK bag. T1 bags were added with non-medicated, sterilized reverse osmosis (SRO) water at the rate of one liter per bag. T2-T6 bags were added with respective medicated, SRO water at the rate of one liter per bag. All the bags were incubated for 15 mins in a cooler containing ice cubes. After 15 minutes, the carcass in each bag was removed from the SRO water bag and inserted into a fresh WHIRL-PAK bag.
Approximately 100 mL of buffered peptone water was added into each bag and agitated for one minute. […]

SMILES: CC(C)C(=O)O [isobutyric acid]
- Bioactivity by itself [1]: some limited bioactivity

SMILES: CC(=O)OO [PAA 200 ppm, peracetic Acid]
- Salmonella count (MPN) ([2]; Salmonella count per mL of wing wash rinsate after 15 mins incubation in medicated SRO water, mean of 9 replicates, concentration in label): 6.51E+05±5.68E+05 cfu/mL and 6.51E+05 cfu/mL
- MPN (Actual numbers) ([2]; Salmonella count per mL of wing wash rinsate after 15 mins incubation, concentration in label): 650,694
- % Reduction ([2]; decrease of Salmonella count compared to untreated control, 15 mins incubation, P<0.05): 84% and 84.55%
- Log Reduction ([2]; overall reduction of salmonella count compared to untreated control, 15 mins incubation): 0.77 Log
